Numbers after ± are expanded uncertainties.
Conditions: Liquid, Pendant drop shape

[Ar] [argon] + O
interfacial tension (298.01 K, 2000 kPa): 71.6 ± 2.3 mN/m | interfacial tension (298.01 K, 5000 kPa): 69.7 ± 2.2 mN/m | interfacial tension (298.01 K, 10000 kPa): 67.4 ± 2.2 mN/m | interfacial tension (298.01 K, 15000 kPa): 65.3 ± 2.1 mN/m | interfacial tension (298.01 K, 20000 kPa): 63.3 ± 2 mN/m | interfacial tension (298.01 K, 25000 kPa): 61.9 ± 2 mN/m | interfacial tension (298.01 K, 30000 kPa): 60.7 ± 1.9 mN/m | interfacial tension (298.01 K, 40000 kPa): 58.6 ± 1.9 mN/m | interfacial tension (298.01 K, 50000 kPa): 57 ± 2 mN/m | interfacial tension (323.16 K, 2000 kPa): 67.1 ± 2.1 mN/m | interfacial tension (323.16 K, 5000 kPa): 65.7 ± 2.1 mN/m | interfacial tension (323.16 K, 10000 kPa): 63.2 ± 2 mN/m | interfacial tension (323.16 K, 15000 kPa): 61.1 ± 2 mN/m | interfacial tension (323.16 K, 20000 kPa): 59.4 ± 1.9 mN/m | interfacial tension (323.16 K, 25000 kPa): 57.9 ± 1.9 mN/m | interfacial tension (323.16 K, 30000 kPa): 56.5 ± 1.8 mN/m | interfacial tension (323.16 K, 40000 kPa): 54.5 ± 1.7 mN/m | interfacial tension (323.16 K, 50000 kPa): 53.3 ± 1.7 mN/m | interfacial tension (373.28 K, 2000 kPa): 58.5 ± 1.9 mN/m | interfacial tension (373.28 K, 5000 kPa): 57.2 ± 1.8 mN/m | interfacial tension (373.28 K, 10000 kPa): 55.5 ± 1.8 mN/m | interfacial tension (373.28 K, 15000 kPa): 53.9 ± 1.7 mN/m | interfacial tension (373.28 K, 20000 kPa): 52.7 ± 1.7 mN/m | interfacial tension (373.28 K, 25000 kPa): 51.6 ± 1.7 mN/m | interfacial tension (373.28 K, 30000 kPa): 50.8 ± 1.6 mN/m | interfacial tension (373.28 K, 40000 kPa): 49.3 ± 1.6 mN/m | interfacial tension (373.28 K, 50000 kPa): 48.2 ± 1.5 mN/m | interfacial tension (448.07 K, 2000 kPa): 43.1 ± 1.4 mN/m | interfacial tension (448.07 K, 5000 kPa): 42.5 ± 1.4 mN/m | interfacial tension (448.07 K, 10000 kPa): 41.3 ± 1.3 mN/m | interfacial tension (448.07 K, 15000 kPa): 40.3 ± 1.3 mN/m | interfacial tension (448.07 K, 20000 kPa): 39.5 ± 1.3 mN/m | interfacial tension (448.07 K, 25000 kPa): 38.8 ± 1.2 mN/m | interfacial tension (448.07 K, 30000 kPa): 38.3 ± 1.2 mN/m | interfacial tension (448.07 K, 40000 kPa): 37.3 ± 1.2 mN/m | interfacial tension (448.07 K, 50000 kPa): 36.6 ± 1.2 mN/m | interfacial tension (473.53 K, 2000 kPa): 37.3 ± 1.2 mN/m | interfacial tension (473.53 K, 5000 kPa): 36.5 ± 1.2 mN/m | interfacial tension (473.53 K, 10000 kPa): 35.6 ± 1.1 mN/m | interfacial tension (473.53 K, 15000 kPa): 34.8 ± 1.1 mN/m | interfacial tension (473.53 K, 20000 kPa): 34.1 ± 1.1 mN/m | interfacial tension (473.53 K, 25000 kPa): 33.7 ± 1.1 mN/m | interfacial tension (473.53 K, 30000 kPa): 33.1 ± 1.1 mN/m | interfacial tension (473.53 K, 40000 kPa): 32.9 ± 1.1 mN/m | interfacial tension (473.53 K, 50000 kPa): 32.8 ± 1.1 mN/m

From the NIST ThermoML archive (doi:10.1016/j.fluid.2015.07.026)
